System: C6 cells
Test: CFSE staining, tumor cell proliferation rate (flow cytometry)
Format: cell-based, rat
Details: C6, GIT27-NO 25 μg/ml, after 48 h; control 8.37%
Method: The cells were seeded in flat-bottom 96-well plates (10^4 cells/well) in a final volume of 200 μl of culture medium, incubated overnight, then treated with different concentrations of the test compound. After 24 h incubation, cell viability was assessed using 3-4,5-dimethylthiazol-2-yl)-2,5-diphenyltetrazolium bromide (MTT) test, based on the mitochondrial-dependent reduction of MTT to formazan, or by crystal violet (CV) staining of adherent cells, as previously described (Mijatovic et al CMLS 2004). The results are presented as % of control values obtained in untreated cultures. The rate of cell proliferation was also determined using flow cytometric analysis of cells labeled with CFSE (Kang 2005). The cells were detached, added with 1.5 μM CFSE and allowed to stand for 15 min at 37° C., then washed twice and seeded in 6-well plates at 2×10^5. The cells were treated with the compound for 24 and 48 h, trypsinized and washed twice. Finally, the cells were resuspended in PBS and analyzed by flow cytometry. Green fluorescence emission from cells illuminated with excitation light of 488 nm was measured with a FACS Calibur (BD, Heidelberg, Germany) and analyzed using the CellQuest software.

SMILES: N#Cc1c(COC(=O)CC2CC(c3ccccc3)=NO2)no[n+]1[O-] (racemic) [GIT27-NO, (S,R)-3-phenyl-4,5 dihydro-5-isoxazole acetic acid-nitric oxide]
- CFSE R1 = parent population: 42.53%
